{
  "source": "patent US9382290B2",
  "about": "“Aptamer-modified polymeric materials for the binding of factors in a wound environment” (KCI LICENSING, INC., priority 2011, dated 2016)",
  "key": {"[1]": {"test_system": "VEGF", "assay": "VEGF capture by P16-linker-ROCF construct, elution and ELISA", "type": "binding", "description": "C1 was ROCF alone; C2 was ROCF+EMCS−P16; C3 was ROCF−EMCS+P16; C4 was silanated ROCF alone; C5=silanated ROCF+EMCS−P16; C6 was silanated ROCF−EMCS+P16; 51 was 50× Sulfo-EMCS+P16; and S2 was 100× Sulfo-EMCS+P16. W=Final subsequent PBS wash. E1=50 mM Tris, 80 mM NaCl, 250 mM Imidazole, 45 min. […] E1 (right) indicates the amount of VEGF dislodged from the foam and peptide with an […] after the last wash. […] S2 bound 584 pg/mL, whereas C4 bound 321 pg/m. S2 has the highest concentration of EMCS and therefore the most covalently bound P16. […] Data are given as mean±standard deviation.\nP16 was conjugated to ROCF, incubated with VEGF, washed stringently, then eluted with an […]. In this experiment, the test group (P16-linker-foam) bound 584 pg/mL, whereas the greatest negative control bound 321 pg/mL. Non-specific binding was expected due to the hydrophobic nature of both the ROCF and the target protein VEGF."}, "[2]": {"test_system": "VEGF", "assay": "Binding of P-16 to VEGF (statement)"}, "[3]": {"test_system": "PDGF", "assay": "Binding of P-16 to PDGF (statement)"}, "[4]": {"target": "granulocyte macrophage colony stimulating factor (GM-CSF) (Homo sapiens, UniProt P04141)", "sequence (P04141 18-144, species assumed)": "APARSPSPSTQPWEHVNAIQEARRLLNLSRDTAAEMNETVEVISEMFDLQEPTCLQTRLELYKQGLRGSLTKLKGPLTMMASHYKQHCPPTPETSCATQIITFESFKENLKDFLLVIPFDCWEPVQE", "assay": "GM-CSF capture by P22-modified silylated 30 PHR chitosan foam, elution and ELISA", "type": "binding", "settings": "333 ng/mL GM-CSF incubated 24 hr; unbound washed off; eluted with imidazole-based buffer E1; 30 PHR chitosan foam silylated with compound 602", "description": "FIG. 8: Silylated with compound 602, 30 PHR Chitosan/P-22 captures more granulocyte macrophage colony stimulating factor (GM-CSF). Briefly, 333 ng/mL of GM-CSF was incubated with the samples for 24 hr. The unbound protein was washed off then the samples were eluted with an imidazole-based buffer, E1. The samples were cleaned up via buffer exchange with PBS and quantified by ELISA.\nThe test procedure used included the steps listed below: All buffers and reagents were prepared in advance, except the Sulfo-EMCS, which was reconstituted immediately before use. See Sulfo-EMCS Product Instructions (Thermo Scientific-Pierce), which is incorporated by reference herein in its entirety. • 1.1. BupH Borate Buffer: Two packs BupH Borate Buffer powderwere added to 1 L DI H2O as per manufacturer's instructions. • 1.2. Conjugation Buffer, BupH Borate Buffer/5 mM EDTA was prepared by dissolving 146 mg EDTA in 500 mL BupH Borate Buffer. • 1.3. Sulfo-EMCS, allowed to warm to RT, was reconstituted immediately before performing the Sulfo-EMCS addition step. […]\n• 1.8. • 1.8.1. […] Use the coupons immediately for growth factor binding or transfer the moist coupons to a capped vial and store them at 4° C. until ready for use for no longer than. […] The unbound proteins were washed off then the samples were eluted with an imidazole-based buffer, E1 before a buffer exchange with PBS and quantification via ELISA."}, "[5]": {"target": "GM-CSF (Homo sapiens, UniProt P04141)", "sequence (P04141 18-144, species assumed)": "as above", "assay": "GM-CSF capture by P22-linker-ROCF construct, elution and ELISA", "type": "binding", "settings": "upon elution; sample with the most capture peptide vs ROCF alone", "description": "FIG. 11 provides elution results for the P22/GM-CSF experiment. P22 was obtained from the Bachem Americas Inc. 2010 peptide catalog. P22 is a GM-CSF antagonist that binds GM-CSF in an inhibitory manner. Briefly, 330 nmol P22 was conjugated to a polyurethane-based ROCF via Sulfo-EMCS chemistry. The P22-linker-foam construct was incubated with 1 μg GM-CSF overnight, washed five times, and subjected to stringent elutions. […] Upon elution, the sample with the most capture peptide, S3, outperformed ROCF alone by 49%. […] Samples S1-S3 all contained peptide-linker-foam with Sulfo-EMCS concentration increasing from S1 to S3 (S1=10× Sulfo-EMCS+P22; S2=25× Sulfo-EMCS+P22 and S3=50× Sulfo-EMCS+P22), C1 was ROCF alone, C2 was Silanated ROCF+EMCS−P22 and C3 was Silanated ROCF−EMCS+P22. There were no positive controls available for this experiment, as no technology has yet been proven to covalently conjugate peptides to polyurethane. However, positive controls were later developed for subsequent experiments based on experimental results. Data are given as mean±standard deviation.\nWith the -Sil bond, a “capture peptide” was next conjugated to the amino-functionalized ROCF. To do so, Sulfo-EMCS chemistry developed in Example 2 was used to conjugate a commercially available GM-CSF antagonist capture peptide, P22, to ROCF. […] The eluted GM-CSF was quantified via ELISA (FIG. 11). […]"}},
  "note": "Where no end group is shown, it is not given here. [ ]: non-standard residue; d: D form. AEEA = NCCOCCOCC(=O)O",
  "data": [
    {"substance": "GHQGQHIGQMS-AEEAc-Cys-NH2 (GHQGQHIGQMS[AEEA]C-NH2; N-terminus assumed; SMILES CC[C@H](C)[C@H](NC(=O)[C@H](Cc1c[nH]cn1)NC(=O)[C@H](CCC(N)=O)NC(=O)CNC(=O)[C@H](CCC(N)=O)NC(=O)[C@H](Cc1c[nH]cn1)NC(=O)CN)C(=O)NCC(=O)N[C@@H](CCC(N)=O)C(=O)N[C@@H](CCSC)C(=O)N[C@@H](CO)C(=O)NCCOCCOCC(=O)N[C@@H](CS)C(N)=O; listed as Homo sapiens) [P16, Anti-VEGF peptide designed de novo]", "values": [
      {"measurement": "VEGF bound (elution E1, ELISA)", "setting": "[1]; P16 conjugated to silanated ROCF via Sulfo-EMCS, incubated with VEGF, washed, E1 = 50 mM Tris, 80 mM NaCl, 250 mM Imidazole, 45 min", "value": 584, "unit": "pg/mL"},
      {"measurement": "more VEGF bound than greatest negative control (silanated ROCF, C4)", "setting": "[1]; elution data", "value": 82, "unit": "%"},
      {"measurement": "binding to VEGF", "setting": "[2]", "value": "shown to bind"},
      {"measurement": "binding to PDGF", "setting": "[3]", "value": "shown to bind"}
    ]},
    {"substance": "NAIQEARRLLNLSRD (listed as Homo sapiens) [P22, Commercially available anti-GM-CSF peptide (Bachem), GM-CSF antagonist]", "values": [
      {"measurement": "GM-CSF captured (eluted, quantified by ELISA)", "setting": "[4]", "value": 299, "unit": "pg/mL"},
      {"measurement": "more GM-CSF captured than ROCF alone", "setting": "[5]", "value": 49, "unit": "%"}
    ]}
  ]
}
